The source of these data is patent publication US10751338B2, “Sustained-release voriconazole-containing thermogel and uses thereof” (priority 2017, dated 2020).

The structures appear in SMILES notation. Values after ≈ are worked out from the molar mass of the structure shown.

The nature of series [1]: In vitro release of voriconazole from the thermogel (Example 5). In kind it is physicochemical. Here is the method: Each formulation was tested in triplicate.
The injection volume was 100 μl.

The test system of series [2] is common equine fungal pathogens. As to conditions: target MIC; cited from earlier work.
Series [3] can be described thus: Ex-vivo trans-corneal fluorescein permeation, Franz diffusion cell (Example 4). In kind it is in vitro ADME, horse. As to conditions: 10 μM sodium fluorescein, 6 hours, 37° C. Here is the method: Fresh equine corneas used in the experiment were obtained from horses enrolled in terminal laboratories performed at the AULATH. Corneoscleral buttons (16 mm diameter) were dissected using standard eye bank technique within 2 hours of enucleation. Fluorescent permeation experiments using a Franz diffusion cell method were performed to examine the integrity of the epithelial barrier function during the times studied (2 and 6 hours). Corneas were mounted horizontally between the donor and the receiving compartments of the diffusion cells (exposure window 0.64 cm^2), which were maintained at 37° C. (see FIGS. 8A and 8B).
Samples (1 ml PBS pH 7.4) were removed from the receiving compartment hourly and replaced with fresh receiving fluid. The fluorescent intensities of the receiving solution samples were analyzed using a microplate spectrofluorometer (Fluostar, BMG Labtech, Ortenberg, Germany) and a 96 well plate (Costar, Corning, N.Y.). A standard solution of NaF was prepared in PBS with a concentration range of 30 μg/ml to 0.12 μg/ml. Fluorescence was determined in a spectrofluorometer at excitation and emission wavelengths of 490 nm and 512 nm, respectively. All groups were tested in triplicate. The results were expressed as mean value±standard error of the mean (SEM).

On to `C[C@@H](c1ncncc1F)[C@](O)(Cn1cncn1)c1ccc(F)cc1F` [Group 6, voriconazole], for which the “Day by which voriconazole was undetectable” value in series [1] (PBS samples) was ≤ 6 days. In series [1] (mean, PBS, 34.5° C.), the UC24 is 4133 µg·days/mL and the UC28 was determined as 4135 µg·days/mL. Besides, in series [1] (mean, first-order release), the K release stood at 0.7558 day⁻¹.
As usually defined, the MIC is the smallest concentration in the dilution series that meets the test's criterion for growth inhibition. On to `C[C@@H](c1ncncc1F)[C@](O)(Cn1cncn1)c1ccc(F)cc1F` [voriconazole], for which the MIC in series [2] is 0.5 µg/mL (≈ 1.43 µM).
Take `O=C1OC2(c3ccc(O)cc3Oc3cc(O)ccc32)c2ccccc21` [fluorescein, sodium fluorescein]: the “Fluorescein concentration in receiving compartment versus negative control” value in series [3] is listed as “not significantly different”.
